Data as given in patent US20260250325A1, “Antiviral Polypeptide Membrane Fusion Inhibitor, and Preparation Method and Application Thereof” (priority 2025, published 2026).
Where a SMILES comes first, the peptide text is derived from it. The star is where a group is joined. Succinyl(4-O-cholesteryl) = CC(C)CCC[C@@H](C)[C@H]1CC[C@H]2[C@@H]3CC=C4C[C@@H](OC(=O)CCC(=O)*)CC[C@]4(C)[C@H]3CC[C@]12C

Columns and labels:
hMPV A2 = type: cell-based; conditions: Vero cells, plaque reduction
How it was run: (§1)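 Plaque reduction in Vero cells (40000/well), 8 concentrations in duplicate; compound pre-mixed with ~200 PFU virus 1 h at 33° C, adsorbed 2 h at 37° C, then overlay with compound, 0.8% CMC, 5 μg/ml trypsin, 0.5% DMSO for 1 day at 33° C. Plaques immunostained (TrueBlue) and counted; EC50 by four-parameter fit.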

hMPV B1 = type: cell-based; conditions: Vero cells, plaque reduction
How it was run: as §1

hPIV-N51 (139-189) = biological target: T1, hPIV-N51 (139-189) (Human parainfluenza 3 virus, UniProt P06828); experiment: SPR affinity to hPIV-N51 coupled on CM5 chip; type: binding
T1 construct: hPIV-N51 (139-189)
T1 sequence (P06828 139-189): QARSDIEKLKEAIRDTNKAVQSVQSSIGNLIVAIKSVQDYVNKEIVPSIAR

hMPV-N46 (127-172) = biological target: T2, hMPV-N46 (127-172) (Human metapneumovirus, UniProt Q6WB98); experiment: SPR affinity to hMPV-N46 coupled on CM5 chip; type: binding
T2 construct: hMPV-N46 (127-172)
T2 sequence (Q6WB98 127-172): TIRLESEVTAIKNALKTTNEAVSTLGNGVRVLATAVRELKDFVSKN

Q: What does the source list for `CC[C@H](C)[C@H](NC(=O)[C@H](CCCCN)NC(=O)[C@H](CCC(=O)O)NC(=O)[C@H](CC(C)C)NC(=O)[C@H](CO)NC(=O)[C@H](CCC(N)=O)NC(=O)[C@H](CC(N)=O)NC(=O)[C@@H](NC(=O)[C@H](CCCCN)NC(=O)[C@H](CCC(=O)O)NC(=O)[C@H](CC(N)=O)NC(=O)[C@@H](NC(=O)[C@H](CCC(N)=O)NC(=O)[C@H](CO)NC(=O)[C@H](C)NC(=O)[C@H](CC(=O)O)NC(=O)[C@H](Cc1ccccc1)NC(=O)[C@@H](NC(=O)[C@H](CC(C)C)NC(=O)[C@H](CCC(=O)O)NC(=O)[C@H](CC(=O)O)NC(=O)[C@H](Cc1ccc(O)cc1)NC(C)=O)C(C)C)C(C)C)[C@@H](C)CC)C(=O)N[C@@H](CCCNC(=N)N)C(=O)N[C@@H](CCCCN)C(=O)N[C@@H](CO)C(=O)N[C@@H](CC(=O)O)C(=O)N[C@@H](CCC(=O)O)C(=O)N[C@@H](CC(C)C)C(=O)N[C@@H](CC(C)C)C(=O)N[C@@H](Cc1c[nH]cn1)C(=O)N[C@@H](CC(N)=O)C(=O)N[C@H](C(=O)N[C@@H](CCC(=O)O)C(=O)N[C@@H](C)C(=O)N[C@@H](C)C(=O)N[C@@H](C)C(=O)N[C@@H](CCCCN)C(=O)N[C@@H](CCCCNC(=O)CCC(=O)O[C@H]1CC[C@@]2(C)C(=CC[C@H]3[C@@H]4CC[C@H]([C@H](C)CCCC(C)C)[C@@]4(C)CC[C@@H]32)C1)C(N)=O)C(C)C` [Compound 30] (Ac-YDELVFDASQVNEKINQSLEKIRKSDELLHNVEAAAKK(Succinyl(4-O-cholesteryl))-NH2)?
A: EC50 (hMPV A2): 0.0948 µM; EC50 (hMPV B1): 0.0513 µM; Kd (hPIV-N51 (139-189)): 1.02 µM; Kd (hMPV-N46 (127-172)): 0.187 µM

Q: With “Ac-FDEEISQVNEKINQSLAFIRKSDELLHNVNAGKSTTEAAAKK(Succinyl(4-O-cholesteryl))-NH2 [Compound 26]” as the compound, how does the EC50 (hMPV A2) read?
A: 0.103 µM

Q: What about the EC50 (hMPV B1) of the same compound?
A: 0.00285 µM

Q: And the Kd (hPIV-N51 (139-189))?
A: 2.58 µM

Q: What about the Kd (hMPV-N46 (127-172)) of the same compound?
A: 2.15 µM

Q: Which results are given for `CC[C@H](C)[C@H](NC(=O)[C@H](CCCCN)NC(=O)[C@H](CCCCN)NC(=O)[C@H](CC(C)C)NC(=O)[C@H](CO)NC(=O)[C@H](CCC(=O)O)NC(=O)[C@H](CCC(=O)O)NC(=O)[C@@H](NC(=O)[C@H](CCCCN)NC(=O)[C@H](CCCCN)NC(=O)[C@H](CC(N)=O)NC(=O)[C@@H](NC(=O)[C@H](CCC(=O)O)NC(=O)[C@H](CCC(=O)O)NC(=O)[C@@H](NC(=O)[C@H](CCCCN)NC(=O)[C@H](CCCCN)NC(=O)[C@H](CC(=O)O)NC(=O)[C@H](Cc1ccccc1)NC(=O)[C@H](CCC(=O)O)NC(=O)[C@H](CC(=O)O)NC(=O)[C@H](Cc1c[nH]c2ccccc12)NC(C)=O)[C@@H](C)CC)C(C)C)[C@@H](C)CC)C(=O)N[C@@H](CCC(=O)O)C(=O)N[C@@H](CCC(=O)O)C(=O)N[C@@H](CO)C(=O)N[C@@H](CC(=O)O)C(=O)N[C@@H](CCCCN)C(=O)N[C@@H](CCCCN)C(=O)N[C@@H](CC(C)C)C(=O)N[C@@H](CCC(=O)O)C(=O)N[C@@H](C)C(=O)N[C@@H](C)C(=O)N[C@@H](C)C(=O)N[C@@H](CCCCN)C(=O)N[C@@H](CCCCNC(=O)CCC(=O)O[C@H]1CC[C@@]2(C)C(=CC[C@H]3[C@@H]4CC[C@H]([C@H](C)CCCC(C)C)[C@@]4(C)CC[C@@H]32)C1)C(N)=O` [Compound 13] (Ac-WDEFDKKIEEVNKKIEESLKKIEESDKKLEAAAKK(Succinyl(4-O-cholesteryl))-NH2)?
A: EC50 (hMPV A2): 0.0117 µM; EC50 (hMPV B1): 0.00618 µM; Kd (hPIV-N51 (139-189)): 2.28 µM; Kd (hMPV-N46 (127-172)): 3.21 µM

Q: With `CC[C@H](C)[C@H](NC(=O)[C@H](CO)NC(=O)[C@H](C)NC(=O)[C@H](CC(=O)O)NC(=O)[C@H](Cc1ccccc1)NC(=O)[C@H](CCC(=O)O)NC(=O)[C@H](CC(=O)O)NC(C)=O)C(=O)N[C@@H](CO)C(=O)N[C@@H](CCC(N)=O)C(=O)N[C@H](C(=O)N[C@@H](CC(N)=O)C(=O)N[C@@H](CCC(=O)O)C(=O)N[C@@H](CCCCN)C(=O)N[C@H](C(=O)N[C@@H](CC(N)=O)C(=O)N[C@@H](CCC(N)=O)C(=O)N[C@@H](CO)C(=O)N[C@@H](CC(C)C)C(=O)N[C@@H](CCC(=O)O)C(=O)N[C@@H](CCC(=O)O)C(=O)N[C@H](C(=O)N[C@@H](CCCNC(=N)N)C(=O)N[C@@H](CCCCN)C(=O)N[C@@H](CO)C(=O)N[C@@H](CC(=O)O)C(=O)N[C@@H](CCC(=O)O)C(=O)N[C@@H](CC(C)C)C(=O)N[C@@H](CC(C)C)C(=O)N[C@@H](Cc1c[nH]cn1)C(=O)N[C@@H](CC(N)=O)C(=O)N[C@@H](CCC(=O)O)C(=O)N[C@@H](C)C(=O)N[C@@H](C)C(=O)N[C@@H](C)C(=O)N[C@@H](CCCCN)C(=O)N[C@@H](CCCCNC(=O)CCC(=O)O[C@H]1CC[C@@]2(C)C(=CC[C@H]3[C@@H]4CC[C@H]([C@H](C)CCCC(C)C)[C@@]4(C)CC[C@@H]32)C1)C(N)=O)[C@@H](C)CC)[C@@H](C)CC)C(C)C` [Compound 28] (Ac-DEFDASISQVNEKINQSLEEIRKSDELLHNEAAAKK(Succinyl(4-O-cholesteryl))-NH2) as the compound, how does the EC50 (hMPV A2) read?
A: 0.0586 µM

Q: And the EC50 (hMPV B1)?
A: 0.0138 µM

Q: What about the Kd (hPIV-N51 (139-189)) of the same compound?
A: 983 µM

Q: What about the Kd (hMPV-N46 (127-172)) of the same compound?
A: 0.209 µM
